ChEMBL document CHEMBL1201862, “PubChem BioAssay data set” (2004)
Calls of active or inactive are those of the source.

Assays:
[1] = biological target: T1, Dual specificity protein phosphatase 3 (Homo sapiens, UniProt P51452); experiment: VHR1 phosphatase inhibitors, primary screen, biochemical, absorbance, uHTS (AID 1654)
[2] = biological target: 26S proteasome non-ATPase regulatory subunit 14 (Homo sapiens, UniProt O00487); experiment: inhibition of proteasome subunit RPN11 – biochemical, fluorescence polarization, uHTS hits, confirmation (AID 602368); assay type: functional
[3] = biological target: DNA (cytosine-5)-methyltransferase 1 (Homo sapiens, UniProt P26358); experiment: DNMT1 methyltransferase inhibitors, confirmation, biochemical, fluorescent molecular beacon (AID 602386); assay type: functional
[4] = biological target: T1, Dual specificity protein phosphatase 3; experiment: SAR VHR1 Fluorescent Assay for In Vitro dose response studies. [Related pubchem assays (depositor defined):AID1654, AID1661, AID1878, AID1992, AID2004, AID2070, AID2085]; assay type: functional
[5] = biological target: Small ubiquitin-related modifier 1 (Homo sapiens, UniProt P63165); experiment: inhibitors of SUMO1 peptide binding, dose response, biochemical, fluorescence polarization, uHTS hits (AID 624382); assay type: functional; conditions: read-out: IC50_Mean
[6] = biological target: T2, Tyrosine-protein phosphatase non-receptor type 7 (Homo sapiens, UniProt P35236); experiment: redox-dependent HePTP inhibition, mechanism study, biochemical, fluorescence (AID 2068); assay type: functional
T2 sequence (P35236 whole entry): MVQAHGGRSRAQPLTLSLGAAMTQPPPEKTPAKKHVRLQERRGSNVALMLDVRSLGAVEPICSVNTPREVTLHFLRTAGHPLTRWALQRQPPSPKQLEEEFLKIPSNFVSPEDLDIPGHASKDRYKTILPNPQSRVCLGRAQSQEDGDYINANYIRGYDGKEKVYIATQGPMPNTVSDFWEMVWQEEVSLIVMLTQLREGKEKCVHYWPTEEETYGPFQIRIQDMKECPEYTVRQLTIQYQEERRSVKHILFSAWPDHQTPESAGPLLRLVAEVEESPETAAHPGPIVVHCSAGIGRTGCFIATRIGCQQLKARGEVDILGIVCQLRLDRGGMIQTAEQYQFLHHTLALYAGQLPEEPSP

[7] = biological target: T1, Dual specificity protein phosphatase 3; experiment: VHR1 phosphatase inhibitors, biochemical (AID 1878)
[8] = ARNT/TACC3 interaction disruptors, potency, confirmation, biochemical, AlphaScreen, cherry-picked samples (AID 651703); assay type: functional, Homo sapiens;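 further: His-tagged ARNT PAS-B domain paired with GST-TACC3 E629A dimer coactivator fragment; potency of inhibitors that break up the complex and lower AlphaScreen signal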
Protein RecA = biological target: T3, Protein RecA (Mycobacterium tuberculosis, UniProt P9WHJ3); experiment: Fluorescence Cell-Free Homogeneous Dose Retest to Identify Inhibitors of RecA-Intein Splicing Activity. [Related pubchem assays (depositor defined):AID2097, AID2223, AID489010, AID492950]; assay type: functional
T3 sequence (P9WHJ3 whole entry): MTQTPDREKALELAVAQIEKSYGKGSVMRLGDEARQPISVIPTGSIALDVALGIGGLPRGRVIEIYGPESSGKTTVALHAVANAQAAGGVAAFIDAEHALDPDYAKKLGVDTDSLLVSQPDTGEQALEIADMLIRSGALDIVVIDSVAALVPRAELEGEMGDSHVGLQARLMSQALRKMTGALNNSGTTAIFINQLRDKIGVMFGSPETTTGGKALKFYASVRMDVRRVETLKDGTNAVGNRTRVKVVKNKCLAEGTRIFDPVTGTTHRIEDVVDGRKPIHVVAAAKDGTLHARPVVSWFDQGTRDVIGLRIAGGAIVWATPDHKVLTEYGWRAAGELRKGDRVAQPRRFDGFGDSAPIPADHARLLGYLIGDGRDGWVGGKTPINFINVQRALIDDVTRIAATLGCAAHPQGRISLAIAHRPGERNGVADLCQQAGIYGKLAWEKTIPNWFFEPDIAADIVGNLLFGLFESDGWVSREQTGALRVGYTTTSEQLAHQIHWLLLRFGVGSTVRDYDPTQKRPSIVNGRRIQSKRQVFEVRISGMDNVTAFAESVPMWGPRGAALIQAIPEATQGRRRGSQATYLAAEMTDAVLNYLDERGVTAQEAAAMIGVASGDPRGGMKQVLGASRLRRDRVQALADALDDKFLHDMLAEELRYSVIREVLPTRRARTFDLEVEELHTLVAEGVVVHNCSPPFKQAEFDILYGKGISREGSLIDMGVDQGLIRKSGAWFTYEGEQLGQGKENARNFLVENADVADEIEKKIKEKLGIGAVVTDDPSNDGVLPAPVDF

[9] = biological target: T4, Tyrosyl-DNA phosphodiesterase 2 (Homo sapiens, UniProt O95551); experiment: human TDP2 enzyme inhibitors, dose response, biochemical, epi absorbance, IC50 (AID 743297)
T4 sequence (O95551 whole entry): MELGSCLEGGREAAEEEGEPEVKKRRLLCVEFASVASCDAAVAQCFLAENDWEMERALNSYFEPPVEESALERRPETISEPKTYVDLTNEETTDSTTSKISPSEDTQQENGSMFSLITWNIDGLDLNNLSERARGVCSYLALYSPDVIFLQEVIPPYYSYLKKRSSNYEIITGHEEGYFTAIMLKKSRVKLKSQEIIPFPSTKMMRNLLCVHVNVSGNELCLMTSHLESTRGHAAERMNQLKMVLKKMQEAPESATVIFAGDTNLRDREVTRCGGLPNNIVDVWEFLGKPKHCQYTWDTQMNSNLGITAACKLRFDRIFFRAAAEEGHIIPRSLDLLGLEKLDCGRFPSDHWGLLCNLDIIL

[10] = biological target: T5, Serine/threonine-protein phosphatase (Homo sapiens, UniProt Q9BPW0); experiment: PP5 phosphatase inhibitors, dose response, biochemical, fluorescence (AID 2395)
T5 sequence (Q9BPW0 whole entry): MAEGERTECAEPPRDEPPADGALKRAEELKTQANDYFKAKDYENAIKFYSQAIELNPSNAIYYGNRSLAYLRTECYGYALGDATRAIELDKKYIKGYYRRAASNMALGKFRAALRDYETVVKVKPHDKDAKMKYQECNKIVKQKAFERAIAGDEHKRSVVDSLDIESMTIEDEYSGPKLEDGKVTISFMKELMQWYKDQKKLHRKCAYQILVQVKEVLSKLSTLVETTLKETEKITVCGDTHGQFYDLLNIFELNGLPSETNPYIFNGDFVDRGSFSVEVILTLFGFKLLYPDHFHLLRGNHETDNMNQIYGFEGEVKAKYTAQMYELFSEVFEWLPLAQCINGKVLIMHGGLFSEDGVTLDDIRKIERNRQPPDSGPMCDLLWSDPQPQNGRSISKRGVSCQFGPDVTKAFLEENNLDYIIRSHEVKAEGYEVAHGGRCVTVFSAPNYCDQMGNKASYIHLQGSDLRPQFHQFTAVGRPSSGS

T1 sequence (P51452 whole entry): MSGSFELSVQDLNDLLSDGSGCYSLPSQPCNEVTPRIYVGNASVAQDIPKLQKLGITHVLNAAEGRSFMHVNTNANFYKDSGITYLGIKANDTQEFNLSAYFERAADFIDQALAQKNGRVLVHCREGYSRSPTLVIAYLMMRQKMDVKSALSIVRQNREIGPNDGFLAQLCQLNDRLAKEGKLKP
Sequence of 26S proteasome non-ATPase regulatory subunit 14 (O00487 whole entry): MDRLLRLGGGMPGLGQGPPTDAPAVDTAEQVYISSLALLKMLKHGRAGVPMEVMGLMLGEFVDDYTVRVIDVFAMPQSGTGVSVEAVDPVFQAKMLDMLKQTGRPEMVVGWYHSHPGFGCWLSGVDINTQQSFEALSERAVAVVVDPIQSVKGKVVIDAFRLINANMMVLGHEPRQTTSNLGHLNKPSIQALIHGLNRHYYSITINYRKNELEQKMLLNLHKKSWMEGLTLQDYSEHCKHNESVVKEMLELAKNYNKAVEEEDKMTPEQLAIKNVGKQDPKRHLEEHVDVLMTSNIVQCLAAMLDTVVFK
Sequence of Small ubiquitin-related modifier 1 (P63165 whole entry): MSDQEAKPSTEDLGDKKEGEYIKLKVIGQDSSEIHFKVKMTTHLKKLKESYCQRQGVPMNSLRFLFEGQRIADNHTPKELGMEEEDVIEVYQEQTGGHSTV
Sequence of DNA (cytosine-5)-methyltransferase 1 (P26358 whole entry): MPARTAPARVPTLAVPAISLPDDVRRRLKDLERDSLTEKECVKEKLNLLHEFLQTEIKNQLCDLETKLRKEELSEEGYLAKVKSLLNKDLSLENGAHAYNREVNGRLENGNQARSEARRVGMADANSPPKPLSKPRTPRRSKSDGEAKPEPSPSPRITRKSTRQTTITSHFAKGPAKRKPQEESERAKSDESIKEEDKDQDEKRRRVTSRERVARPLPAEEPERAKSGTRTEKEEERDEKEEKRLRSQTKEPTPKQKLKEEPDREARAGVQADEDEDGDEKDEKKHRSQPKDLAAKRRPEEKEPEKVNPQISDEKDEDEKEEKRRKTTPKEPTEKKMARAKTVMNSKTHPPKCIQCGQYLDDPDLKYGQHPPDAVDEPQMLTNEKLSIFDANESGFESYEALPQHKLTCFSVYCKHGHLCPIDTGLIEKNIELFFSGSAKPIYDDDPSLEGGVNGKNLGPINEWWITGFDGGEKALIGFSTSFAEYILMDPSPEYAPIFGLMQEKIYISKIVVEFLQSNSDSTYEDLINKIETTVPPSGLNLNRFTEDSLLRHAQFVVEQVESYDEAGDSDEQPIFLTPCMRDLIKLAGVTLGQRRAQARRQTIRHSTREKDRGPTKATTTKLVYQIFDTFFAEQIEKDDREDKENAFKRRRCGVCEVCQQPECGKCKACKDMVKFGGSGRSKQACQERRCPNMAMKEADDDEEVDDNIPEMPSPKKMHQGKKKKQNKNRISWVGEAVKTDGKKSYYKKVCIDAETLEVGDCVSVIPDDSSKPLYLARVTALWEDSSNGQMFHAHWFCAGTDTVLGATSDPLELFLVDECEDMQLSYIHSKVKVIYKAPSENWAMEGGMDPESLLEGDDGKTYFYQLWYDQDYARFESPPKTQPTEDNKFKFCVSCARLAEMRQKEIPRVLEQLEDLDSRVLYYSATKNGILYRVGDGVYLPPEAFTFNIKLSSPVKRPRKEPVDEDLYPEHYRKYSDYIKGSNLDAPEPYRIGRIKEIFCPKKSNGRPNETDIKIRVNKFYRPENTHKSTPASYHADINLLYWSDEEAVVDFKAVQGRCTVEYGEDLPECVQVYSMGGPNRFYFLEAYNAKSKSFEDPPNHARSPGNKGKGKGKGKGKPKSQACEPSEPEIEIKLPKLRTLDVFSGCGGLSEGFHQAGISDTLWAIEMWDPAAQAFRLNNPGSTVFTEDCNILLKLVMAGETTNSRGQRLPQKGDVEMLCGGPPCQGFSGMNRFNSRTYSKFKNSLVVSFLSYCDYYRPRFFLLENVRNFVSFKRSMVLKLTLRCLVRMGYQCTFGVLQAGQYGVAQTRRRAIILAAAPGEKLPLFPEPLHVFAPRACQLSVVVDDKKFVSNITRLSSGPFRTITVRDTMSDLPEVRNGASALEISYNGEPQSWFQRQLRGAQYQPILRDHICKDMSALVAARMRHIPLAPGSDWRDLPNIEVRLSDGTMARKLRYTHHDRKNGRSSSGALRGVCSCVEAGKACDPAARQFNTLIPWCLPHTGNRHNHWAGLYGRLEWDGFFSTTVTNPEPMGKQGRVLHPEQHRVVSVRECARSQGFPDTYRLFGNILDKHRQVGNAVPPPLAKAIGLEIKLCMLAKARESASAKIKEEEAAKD

## CCOC(=O)c1sc2nc3c(SCC(=O)O)cc(C(=O)c4ccccc4O)cn3c(=O)c2c1C
[1]
  IC50: 4.64 µM (active)
[2]
  IC50: 6.79 µM (active)
[3]
  IC50: 4.12 µM (active)
[4]
  IC50: 0.382 µM (active)
[5]
  IC50: > 66.6 µM (inactive)
[6]
  IC50: 0.105 µM (active)
[7]
  IC50: 3.69 µM (active)

## CCOC(=O)c1ccc(Nc2cc3ccccc3c(O)n2)cc1
[8]
  AC50: 84.2 µM (active)
Protein RecA
  EC50: 9.12 µM (active)

## C=CCn1c(NC(=O)c2ccccc2Cl)c(C#N)c2nc3ccccc3nc21
[9]
  IC50: > 128 µM (inactive)
[10]
  IC50: > 7.45 µM (active)
